From patent US6340705B1, “Use of α-linolenic acid metabolites for treatment or prevention of cancer” (Monsanto Technology, LLC, priority 1999, dated 2002)
Marks after values point to notes of the source that are not given here.

Tests used:
[1] = tested on: Min/+ mouse model of intestinal cancer; assay: Intestinal polyp formation in the Min/+ mouse model of intestinal cancer; format: in vivo; set-up: Avg. large intestine tumor size: unit not given here; details: Min/+ mice; for effect on polyp number relative to the US17 control / effectiveness in inhibiting polyp formation and development in the large intestine: 10 g/day human equivalent dose; for effect on polyp number relative to the US17 control: differences not significant; for Total small intestine tumors/group / Avg. large intestine tumors/mouse / Avg. small intestine tumor size / Avg. small intestine tumors/mouse / Avg. large intestine tumor size / Avg. large intestine tumor load / Avg. small intestine tumor load / Total Avg. overall tumor load / Total Avg. overall tumor size / Total Avg. tumors/mouse: 10 g/day human equivalent dose (3% wt.) or sulindac 320 ppm; for Total small intestine tumors/group / Avg. large intestine tumors/mouse / Avg. small intestine tumor size / Avg. small intestine tumors/mouse / Avg. large intestine tumor size / Avg. large intestine tumor load / Avg. small intestine tumor load / Total large intestine tumors/group / Total large intestine tumors/group, figure in brackets (animals bearing tumors/animals in group) / Total Avg. overall tumor load / Total Avg. overall tumor size / Total Avg. tumors/mouse: seven weeks; for Avg. large intestine tumors/mouse / Avg. small intestine tumor size / Avg. small intestine tumors/mouse / Avg. large intestine tumor size / Avg. large intestine tumor load / Avg. small intestine tumor load / Total Avg. overall tumor load / Total Avg. overall tumor size / Total Avg. tumors/mouse: mean ± SEM; for Avg. large intestine tumor size: only animals bearing colonic tumors; for Avg. large intestine tumor load / Avg. small intestine tumor load: tumor number × tumor size; for Total large intestine tumors/group / Total large intestine tumors/group, figure in brackets (animals bearing tumors/animals in group): fatty acid ethyl ester 10 g/day human equivalent dose (3% wt.) in US17 diet or sulindac 320 ppm; for Total Avg. overall tumor load / Total Avg. overall tumor size / Total Avg. tumors/mouse: large and small intestine
Procedure: The efficacy of select n-3 and n-6 polyunsaturated fatty acids was evaluated in the Min/+ mouse model of intestinal cancer. The following fatty acid ethyl esters were tested for their effect on intestinal polyp formation: 1) ALA-EE; 2) SDA-EE; 2) EPA-EE; 4) DHA-EE; 5) GLA-EE ([…], 18:3 n-6); and 6) CLA-EE (conjugated linoleic acid; c9t11-18:2 (77%)+c9c11-18:2 (18%)+other isomers (5%)).
These fatty acid ethyl esters were added to the US17 diet to provide 10 g/day human equivalent dose (3% wt.). The NSAID, sulindac (320 ppm), served as the positive control. In order to maintain a 17% fat (37 en%) content in the US17 diet, oleic acid (18:1 n-9) was removed from the US17 diet in an amount equal to the amount of the fatty acid ethyl ester that was added. Mice were received at approximately five weeks of age and were fed the test diets upon receipt. After seven weeks on the respective test diet, the mice were sacrificed and the intestinal polyps were counted and measured.

[2] = set-up: species or system Mice; details: mouse, in vivo
Description: The method used was a non-radioactive, dose response, metabolic end-point study.
(§1) Mice were fed a US17 diet containing α-linolenic acid ethyl ester (ALA-EE), stearidonic acid ethyl ester (SDA-EE), eicosapentaenoic acid ethyl ester (EPA-EE), or docosahexaenoic acid ethyl ester (DHA-EE) in an amount equivalent to a human western diet containing 1, 3 or 10 g/day of the fatty acid (g/day human equivalent dose). In order to maintain a 17% fat (37 en %) content in the US17 diet, oleic acid (18:1 n-9), as an oleic acid cassette, was removed from the US17 diet in an amount equal to the amount of fatty acid ester that was added. Oleic acid was selected as the replacement fatty acid because literature reports indicate that oleic acid is neutral with respect to inflammation and cancer.
(§2) After one month on the respective US17-based diets, the mice were sacrificed and the fatty acid composition of each of their livers was analyzed by gas chromatography. The results of these analyses are pressured in FIG. 8.

[3] = format: in vivo, rats; details: rat, in vivo
Description: as §1, §2
The method used was as described in Example 6 except that rats were used in place of mice.

[4] = Metabolism in mice, time course analysis using radiolabeled fatty acids (mouse liver); details: mice on US17 diet, intraperitoneal 10 μCi, at 24 hours
Procedure: The method used was a time course study using ^14C-labeled fatty acids.
Mice were fed the US17 diet for a period of one month in order to achieve steady-state fatty acid metabolism. After achieving steady-state fatty acid metabolism, the mice were administered an intraperitoneal injection containing 10 μCi of ^14C-ALA, ^14C-SDA, ^14C-EPA OR ^14C-DHA. Mice were sacrificed 3 hours, 8 hours or 24 hours post-injection, and the total amount of ^14C-EPA, ^14C-DPA n-3 and ^14C-DHA was measured by argentation thin layer chromatography followed by direct electronic autoradiography, as described in Example 3.

[5] = tested on: HepG2 cells; assay: Uptake of 14C-ALA, 14C-SDA and 14C-EPA by HepG2 cells; format: in vitro ADME; details: for radiolabeled fatty acid taken up by the cells: 20 μM complexed to fatty acid free BSA, within the first six hours of incubation; for uptake by HepG2 cells, comparison (FIG. 1): 20 μM, 6, 24 and 48 hours
Procedure: To a culture medium containing HepG2 cells was added 20 μM ^14C-ALA, ^14C-SDA or ^14C-EPA complexed to fatty acid free BSA. The amount of ^14C-ALA, ^14C-SDA or ^14-EPA EPA Taken up by the HepG2 cells was measured 6 hours, 24 hours and 48 hours after addition of the fatty acid. A scintillation counter was used to measure the total amount of radioactivity in the HepG2 cells and the amount remaining in the medium.

[6] = tested on: HepG2 cells; assay: Metabolism of radiolabeled fatty acids to long chain n-3 PUFAs (EPA, DHA) in HepG2 cells; format: in vitro ADME; details: 20 μM
Procedure: HepG2 cells were allowed to take up ^14C-ALA or ^14C-SDA as described in Example 2. The total amount of ^14C-EPA, ^14C-DPA and ^14C-DHA present in the HepG2 cells was measured 6 hours, 24 hours and 48 hours after addition of the fatty acid by argentation thin layer chromatography (TLC). The amount of each fatty acid present as a band on the TLC plate was quantified by electronic autoradiography using an Instant Imager supplied by Packard (Meriden, Conn.).
HepG2 cells were allowed to take up ^14C-ALA, ^14C-SDA or ^14C-EPA as described in Example 2. The amount of ^14C-EPA and ^14C-DHA present in the HepG2 cells was measured 6 hours, 24 hours and 48 hours after addition of the fatty acids by argentation thin layer chromatography (TLC) as described in Example 3. The amount of ^14C-EPA and ^14C-DHA present as bands on the TLC plate were quantified by electronic autoradiography using an Instant Imager as described in Example 3.

Compound	effect on polyp number relative to the US17 control [1]	Total small intestine tumors/group [1]	Avg. large intestine tumors/mouse [1]	Avg. small intestine tumor size [1]	Avg. small intestine tumors/mouse [1]	Avg. large intestine tumor size [1]	Avg. large intestine tumor load [1]	Avg. small intestine tumor load [1]	Total large intestine tumors/group [1]	Total large intestine tumors/group, figure in brackets (animals bearing tumors/animals in group) [1]	Total Avg. overall tumor load [1]	Total Avg. overall tumor size [1]	Total Avg. tumors/mouse [1]	effectiveness in inhibiting polyp formation and development in the large intestine [1]	sum of long chain n-3 PUFAs (EPA+DPA n-3+DHA) in liver tissue, rank order of dose dependent increase (FIG. 8) [2]	sum of long chain n-3 PUFAs (EPA+DPA n-3, and DHA) in liver tissue, rank order of dose dependent accumulation (FIG. 9) [3]	order of metabolism to 14C-EPA + 14C-DPA n-3 + 14C-DHA in mouse liver (FIG. 6) [4]	radiolabeled fatty acid taken up by the cells [5]	uptake by HepG2 cells, comparison (FIG. 1) [5]	amount of EPA that remained after incubation with EPA itself [6]
conjugated linoleic acid [CLA]	appeared to increase polyp number	409	1.1 ± 0.4^abcd	1.24 ± 0.03^ab mm	45.4 ± 8.2^a	3.03 ± 0.52^a	3.47 ± 1.29^ab mm	57.84 ± 11.70^a mm	10	5/9	61.30 ± 12.41^a mm	1.28 ± 0.04^ab mm	46.6 ± 8.3^a	–	–	–	–	–	–	–
α-linolenic acid [ALA]	–	364	0.8 ± 0.3^bcd	1.23 ± 0.04^ab mm	36.4 ± 6.3^ab	2.75 ± 0.46^ab	2.15 ± 0.83^bcd mm	45.67 ± 8.66^ab mm	8	5/10	45.97 ± 8.88^ab mm	1.21 ± 0.03^bc mm	37.2 ± 6.6^ab	marginally efficacious	–	–	–	–	–	–
CCCCC/C=C\C/C=C\C/C=C\CCCCC(=O)O [GLA, γ-linolenic acid]	appeared to increase polyp number	421	1.2 ± 0.4^abc	1.30 ± 0.04^ab mm	46.8 ± 7.1^a	2.57 ± 0.30^ab	3.25 ± 1.34^abc mm	61.62 ± 10.36^a mm	11	6/9	64.84 ± 11.05^a mm	1.33 ± 0.04^a mm	48.0 ± 7.4^a	–	–	–	–	–	–	–
CC/C=C\C/C=C\C/C=C\CCCCCCCC(=O)OCC [ALA-EE, α-linolenic acid ethyl ester]	–	–	–	–	–	–	–	–	–	–	–	–	–	–	DHA-EE>EPA-EE>SDA-EE>ALA-EE	DHA-EE>EPA-EE>SDA-EE>ALA-EE	–	–	–	–
CC/C=C\C/C=C\C/C=C\C/C=C\C/C=C\C/C=C\CCC(=O)OCC [DHA-EE, docosahexaenoic acid ethyl ester]	–	–	–	–	–	–	–	–	–	–	–	–	–	–	DHA-EE>EPA-EE>SDA-EE>ALA-EE	DHA-EE>EPA-EE>SDA-EE>ALA-EE	–	–	–	–
CC/C=C\C/C=C\C/C=C\C/C=C\C/C=C\C/C=C\CCC(=O)O [DHA, docosahexaenoic acid]	–	280	1.8 ± 0.4^a	1.16 ± 0.04^ab mm	28.0 ± 5.6^bc	3.01 ± 0.20^a	5.06 ± 0.85^a mm	33.15 ± 8.09^bc mm	18	–	35.60 ± 7.10^bc mm	1.20 ± 0.04^bc mm	29.8 ± 5.9^bc	no efficacy	–	–	DHA=EPA>SDA>ALA	–	–	–
CC/C=C\C/C=C\C/C=C\CCCCCCCC(=O)O [ALA, α-linolenic acid]	–	–	–	–	–	–	–	–	–	–	–	–	–	–	–	–	–	Approximately 95%	taken up equally	–
CC1=C(CC(=O)O)c2cc(F)ccc2/C1=C\c1ccc([S+](C)[O-])cc1 (stereo not drawn) [Sulindac, sulindac]	–	29	0.2 ± 0.2^cd	1.25 ± 0.29^ab mm	3.2 ± 1.1^d	2.00 ± 0.00^ab	0.44 ± 0.29^cd mm	3.64 ± 1.12^d mm	2	2/9	3.64 ± 1.27^d mm	1.04 ± 0.08^d mm	3.4 ± 1.2^d	–	–	–	–	–	–	–
CC/C=C\C/C=C\C/C=C\C/C=C\C/C=C\CCCC(=O)OCC [EPA-EE, eicosapentaenoic acid ethyl ester]	–	–	–	–	–	–	–	–	–	–	–	–	–	–	DHA-EE>EPA-EE>SDA-EE>ALA-EE	DHA-EE>EPA-EE>SDA-EE>ALA-EE	–	–	–	–
CC/C=C\C/C=C\C/C=C\C/C=C\CCCCC(=O)OCC [SDA-EE, stearidonic acid ethyl ester]	–	–	–	–	–	–	–	–	–	–	–	–	–	–	DHA-EE>EPA-EE>SDA-EE>ALA-EE	DHA-EE>EPA-EE>SDA-EE>ALA-EE	–	–	–	–
CC/C=C\C/C=C\C/C=C\C/C=C\C/C=C\CCCC(=O)O [EPA, eicosapentaenoic acid]	–	176	0.9 ± 0.3^abcd	1.05 ± 0.03^b mm	17.6 ± 2.2^cd	2.48 ± 0.39^ab	2.25 ± 0.75^bcd mm	–	9	–	20.28 ± 2.23^cd mm	1.11 ± 0.04^cd mm	18.5 ± 2.2^a	–	–	–	–	Approximately 95%	taken up equally	63%
